In publication PMC9320521, “Detection of Unprecedented CYP74 Enzyme in Mammal: Hydroperoxide Lyase CYP74C44 of the Bat Sturnira hondurensis” (International Journal of Molecular Sciences, 2022):

Test system: CYP74C44 (ShHPL)
Experiment: UV absorbance decrease at […] nm
Format: biochemical, Sturnira hondurensis
Settings: Na phosphate buffer pH 7.0, 25 °C, 5 to 150 μM substrate

Going from `CC/C=C\C[C@@H](/C=C/C=C\C/C=C\C/C=C\CCCC(=O)O)OO` [15-HPEPE] to `CC/C=C\C[C@@H](/C=C/C=C\CCCCCCCC(=O)O)OO` [13-HPOT, (9Z,11E,13S,15Z)-13-hydroperoxy-9,11,15-octadecatrienoic], the Km rises from 8.17 ± 1.6 µM to 28.4 ± 6.7 µM (3.5-fold).

Compared with `CC/C=C\C/C=C\C=C\[C@H](CCCCCCCC(=O)O)OO` [9-HPOT, (9S,10E,12Z,15Z)-9-hydroperoxy-10,12,15-octadecatrienoic], `CCCCC[C@@H](/C=C/C=C\CCCCCCCC(=O)O)OO` [13-HPOD, (9Z,11E,13S)-13-hydroperoxy-9,11-octadecadienoic] is 2.8-fold higher in Km: 20.9 ± 5.6 µM for the first, 57.9 ± 13.3 µM for the second.

For `CCCCC/C=C\C=C\[C@H](CCCCCCCC(=O)O)OO` [9-HPOD, (9S,10E,12Z)-9-Hydroperoxy-10,12-octadecadienoic], the Km was 46.6 ± 7.2 µM.
